# US20220047716A1, “COMBINATION THERAPIES WITH ANTI-FOLATE RECEPTOR ANTIBODY CONJUGATES” (SUTRO BIOPHARMA, INC., priority 2018, published 2022)
# Where “and” joins values, the source holds several entries; their conditions need not be identical. Equal entries are not always repeated.
# How the values were obtained:
# MC38-hFolRα tumors = assay: MC38-hFolRα tumor model, combination with Avelumab; conditions: ADC Molecule 4 10 or 15 mg/kg once IV; Avelumab q3dx3 intraperitoneally
# Experimental: Growth curves are shown until >50% of animals in the single agent treatment groups were euthanized due to reaching tumor size limit based on IACUC protocol. […] Statistical analysis for comparison to vehicle control was performed using one-way ANOVA with Dunnett's multiple comparisons test. A probability of less than 5% (p<0.05) was considered as significant. […] All graphs are presented as mean or individual values±SEM.
# Igrov1 tumors = assay: Igrov1 ovarian tumor xenograft efficacy in SCID Beige mice; assay type: in vivo; conditions: Igrov1, day 29; ADC Molecule 4 2.5 mg/kg single dose; carboplatin 60 mg/kg q7dx2
# Experimental: Igrov1 ovarian cancer cells were implanted subcutaneously into SCID Beige mice and treated with a single dose of 2.5 mg/kg FolRα ADC variants listed in Table 20. ADCs were administered when tumors reached ˜150 mm^3.
# [1] = Body weight change in rats given free drugs; assay type: in vivo; conditions: IV bolus, free drug (I) two doses (0.4, 1 mg/kg), free drug (II) 0.4 mg/kg
# [2] = Pharmacokinetics of free drugs (I) and (II) in Sprague-Dawley rats; assay type: in vivo; conditions: IV bolus 0.4 or 1 mg/kg, data not shown
# Experimental: To assess the pharmacokinetic profile of free drug (I), female Sprague-Dawley rats (mean body weight 250 g) were given either a 0.4 mg/kg or 1 mg/kg dose by IV bolus administration (N=three animal per dose level) via an indwelling jugular vein catheter. Blood samples were collected at […], 1, 2, 8, 24, 32, 48, and 72 hour post-dose. Levels of free drug (I) and (II) were measured by LC-MS/MS and non-compartmental pharmacokinetic analysis was conducted using Phoenix WinNonlin Version 6.4 (Pharsight Corporation). The PK of free drug (I) could not be estimated due to the fact that concentrations of (I) increased from 2 to 8 hours and were undetectable thereafter.
molecule,measurement,setting,value
Avelumab: PD-L1 inhibitor Avelumab (clinical grade),Initial effect on MC38-hFolRα tumor growth,MC38-hFolRα tumors,tumor stasis until approximately day 7
N.N.O=C([O-])C1(C(=O)[O-])CCC1.[Pt+2] [carboplatin],Final mean tumor size,Igrov1 tumors,842 mm^3
same,Tumor growth inhibition (TGI),Igrov1 tumors,70% and 47%
"COc1cc2cc(c1Cl)N(C)C(=O)C[C@H](OC(=O)[C@H](C)N(C)C(=O)CCC(C)(C)S)[C@]1(C)O[C@H]1[C@H](C)[C@@H]1C[C@@](O)(NC(=O)O1)[C@H](OC)/C=C/C=C(/C)C2 [free drug (II), reference compound]",Effect on body weight,[1],progressive body weight loss was observed
CN[C@H](C(=O)N[C@H](C(=O)N(C)[C@H](/C=C(\C)C(=O)O)C(C)C)C(C)(C)C)C(C)(C)c1cccc(N)c1 [free drug (I)],Plasma level of free drug,[2],undetectable at 24 hours post dose
same,Effect on body weight,[1],did not have an effect on the body weight of the animals
